Experimental data published in patent US8652840B2, “Method for obtaining female germline stem cells and uses thereof” (The General Hospital Corporation, priority 2004, dated 2014).
Where two headings read alike, the source gives them in different places.

Assays:
[1] = test system: primordial and early growing follicles (oocytes); experiment: Doxorubicin-synchronized oocyte death in adult female mice, germ cell dynamics; format: in vivo
Procedure: The existence of mammalian female germline stem cells implies an inherent capacity of the ovaries to generate, or regenerate following an insult, new stockpiles of resting (primordial) oocyte-containing follicles in a regulated fashion. To address this issue directly, adult female mice were injected with doxorubicin to synchronize oocyte death (Perez, G. I. et al, (1997) Nature Med. 3, 1228-32), and ovaries were collected at multiple intervals after drug exposure to assess germ cell dynamics.

[2] = test system: oocyte-containing follicles; experiment: In-vivo HDAC suppression with Trichostatin A, counts of oocyte-containing follicles; parameters: species or system mice
Excerpt: (§1) Age-specified or timed-pregnant wild-type C57BL/6 and CD1 female mice were obtained from Charles River Laboratories, whereas AKR/J mice were obtained from Jackson Laboratories. Ovaries were fixed in 0.34N glacial acetic acid, 10% formalin, and 28% ethanol, paraffin embedded, and serially sectioned (8 μm). The sections were aligned in order on glass microscope slides, and stained with hematoxylin and picric methyl blue. The number of non-atretic or atretic primordial, primary, and preantral follicles was then determined. Primordial follicles were identified as having a compact oocyte surrounded by a single layer of flattened granulosa cells, while primary follicles were identified as having an enlarged oocyte surrounded by a single layer of cuboidal granulosa cells. Intermediate-stage follicles (compact or enlarged oocyte with a single layer of mixed flattened and cuboidal granulosa cells) were scored as primary. Preantral follicles were identified as having an enlarged oocyte surrounded by at least a partial or complete second layer of cuboidal granulosa cells, but no more than four complete layers of cuboidal granulosa cells. Only those follicles containing an oocyte with a clearly visible nucleus were scored. Follicles at the primordial, primary and preantral (immature) stages of development were scored as atretic if the oocyte was degenerating (convoluted, condensed) or fragmented. Grossly atretic follicles lacking oocyte remnants were not included in the analyses. Given that this procedure sampled one-fifth of the entire ovarian volume, the total number of follicles per ovary (healthy or atretic) was then estimated by multiplying the cumulative counts for each ovary by a correction factor of five (Zuckerman, S. (1951) Recent Prog. Horm. Res. 6: 63-108; Tilly, J. L. (2003) Reprod. Biol. Endocrinol. 1:1-11). A single trained ovarian histologist in a blinded fashion conducted all counts, and two other members of the group periodically evaluated random samples to verify accuracy and reproducibility of the data.
Animals were sacrificed 24 hours post-injection, histological preparations of ovaries were prepared, and oocyte-containing follicles were counted per standard laboratory procedures (see Example 1). Treatment with TSA caused a 53% increase in the number of total healthy immature oocyte-containing follicles per ovary when compared with ovaries of control mice given the vehicle treatment. Not only was the resting (primordial) pool of follicles increased by 42%, but also the number of early growing (primary) follicles was increased (FIG. 7c).

ovarian function = details: cited from earlier work
primordial follicles = test system: primordial follicles; parameters: species or system mice; details: mouse, in vivo
Excerpt: as §1, with “Given that this procedure sampled one-fifth of the entire ovarian volume, the total number of follicles per ovary (healthy or atretic) was then estimated by multiplying the cumulative counts for each ovary by a correction factor of five (Zuckerman, S. (1951) Recent Prog. Horm. Res. 6: 63-108; Tilly, J. L. (2003) Reprod. Biol. Endocrinol. 1:1-11).” left out, “data. […]” for “data.”
To clarify whether loss of primordial follicles observed in busulfan-treated females (FIG. 5a) results from toxicity to existing oocytes, ovaries were collected from female mice at multiple points during and after the busulfan dosing regimen described above, and they were analyzed for the incidence of primordial follicle atresia. […]

[3] = prepubertal female mice, single i.p. injection 10 mg/kg, 24 hours post-injection

With COc1cccc2c1C(=O)c1c(O)c3c(c(O)c1C2=O)C[C@@](O)(C(=O)CO)C[C@@H]3O[C@H]1C[C@H](N)[C@H](O)[C@H](C)O1 [doxorubicin] as the molecule, how does the “primordial and total immature follicle pools” value ([1]; between 24 and 36 h post-treatment (data not shown)) read?
The value was “spontaneous regeneration”.

And the “primordial and early growing follicles (oocytes)” value ([1]; within the first 24 h after treatment (data not shown))?
The value was “rapid and extensive loss”.

With CC(/C=C/C(=O)NO)=C\[C@@H](C)C(=O)c1ccc(N(C)C)cc1 [TSA, Trichostatin A] as the molecule, how does the “increase in primordial follicle numbers” value ([2]; female mice at 240 days of age, within 24 h (data not shown)) read?
The value was 89%.

What about the “increase in healthy immature follicles (number)” value ([2]; prepubertal (13-day old) female mice, 10 mg/kg, 24 hours) of the same molecule?
Its value is “more than 1,600”.

And the “increase in the number of total healthy immature oocyte-containing follicles per ovary versus vehicle” value [2, 3]?
The value was 53%.

And the “increase of the resting (primordial) pool of follicles” value [2, 3]?
The value was 42%.

And the “number of early growing (primary) follicles” value [2, 3]?
The value was “increased”.

For O=P1(N(CCCl)CCCl)NCCCO1 (centres unmarked) [cyclophosphamide], which “POF, cases of patients” value (ovarian function; Grigg et al. 2000: both agents ages 14-57, median=38, cyclophosphamide alone ages 13-58, median=28) is on record?
The value was 47 of 103.

With CS(=O)(=O)OCCCCOS(C)(=O)=O [busulfan] as the molecule, how does the “POF, cases of patients” value (ovarian function; in vivo) read?
Its value is 19 of 19.

And the “hypogonadism indicative of premature ovarian failure (POF), cases of patients” value (ovarian function; in vivo)?
The value was 20 of 21.

And the “ovarian damage requiring hormonal replacement, cases of patients” value (ovarian function; in vivo)?
The value was 4 of 4.

And the “plateau number of atretic primordial follicles” value (primordial follicles; female, 20 mg/kg, 5 days)?
The value was 46 per ovary.

And the “reduction in the resting (primordial) oocyte pool” value (primordial follicles; female, 3 weeks)?
Its value is 95%.

What about the “ratio of primordial to primary follicles, busulfan versus vehicle” value (primordial follicles) of the same molecule?
Its value is “No significant change”.
